We go through two compounds from patent publication US20240150290A1, “HETEROCYCLIC P2Y14 RECEPTOR ANTAGONISTS” (priority 2021, published 2024).

For series [1] the following is noted: mouse, cited from earlier work.
For series [2] the following is noted: mouse, cited from earlier work. This is another data set of the same source.
For series [3] the following is noted: human, cited from earlier work.
Series [4] deals with T1, hP2Y14R (Homo sapiens, UniProt Q15391).
T1 construct: expressed in transfected cells; host or cells: CHO cells
T1 sequence (Q15391 1-338): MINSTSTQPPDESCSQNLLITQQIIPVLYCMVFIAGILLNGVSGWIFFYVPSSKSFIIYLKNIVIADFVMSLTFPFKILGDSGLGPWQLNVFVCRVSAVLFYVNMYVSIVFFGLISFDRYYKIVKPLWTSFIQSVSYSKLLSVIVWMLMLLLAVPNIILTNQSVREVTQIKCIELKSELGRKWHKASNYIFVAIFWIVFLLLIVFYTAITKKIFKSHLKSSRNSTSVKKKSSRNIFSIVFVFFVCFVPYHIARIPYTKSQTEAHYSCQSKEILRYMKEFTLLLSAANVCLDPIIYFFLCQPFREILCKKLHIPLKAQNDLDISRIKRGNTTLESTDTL
Description: Inhibition of fluorescent antagonist binding in whole hP2Y14R-expressing CHO cells (flow cytometry). The note with it: read-out: IC50.

In a further series the target is T2, mP2Y14R (Mus musculus, UniProt Q9ESG6).
T2 sequence (Q9ESG6 1-338): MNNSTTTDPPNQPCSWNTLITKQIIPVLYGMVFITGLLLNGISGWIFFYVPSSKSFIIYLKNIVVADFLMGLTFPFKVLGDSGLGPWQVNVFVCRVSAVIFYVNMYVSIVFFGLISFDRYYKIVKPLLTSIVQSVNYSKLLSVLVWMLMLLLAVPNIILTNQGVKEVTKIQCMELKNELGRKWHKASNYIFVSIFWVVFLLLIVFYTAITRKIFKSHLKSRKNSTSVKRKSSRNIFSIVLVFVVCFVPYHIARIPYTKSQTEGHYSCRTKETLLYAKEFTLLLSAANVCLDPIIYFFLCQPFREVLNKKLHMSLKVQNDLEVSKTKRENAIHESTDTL
Also on record: expressed in transfected cells. The conditions noted are these: Table 2; data from Jung et al. and Mufti et al.; cited from earlier work.

Series [5] can be described thus: Aqueous solubility, pION method.
For series [6] the following is noted: cited from earlier work.
A short description of series [7]: HPLC-based lipophilicity (Log D7.4). The note with it: calculated from retention factor difference between ligands and 1 (k = 3.41).
Series [8] addresses T1, hP2Y14R. The conditions noted are these: Table 2; data from Jung et al. and Mufti et al.; cited from earlier work.
The conditions of series [9]: human, cited from earlier work. This is another data set of the same source.
Another series has as its target CYP2C19 (Homo sapiens, UniProt P33261). The note with it: Table 4; Yu et al.; cited from earlier work.
For series [10] the following is noted: rat; Table 4; Yu et al.; cited from earlier work.
For series [11] the following is noted: rat; Table 4; Yu et al.; cited from earlier work. This is another data set of the same source.
The conditions of series [12]: Table 4; Yu et al.; cited from earlier work.
The target in another series is CYP3A4 (Homo sapiens, UniProt P08684). The note with it: Table 4; Yu et al.; cited from earlier work.
The target of another series is CYP2D6 (Homo sapiens, UniProt P10635). The note with it: Table 4; Yu et al.; cited from earlier work.
For series [13] the following is noted: i.v. administration in rat, 0.5 mg/kg; Yu et al.; cited from earlier work.
The conditions of series [14]: Table 4; Yu et al.; cited from earlier work. The source holds these as a separate data set.
The target of a further series is CYP2C9 (Homo sapiens, UniProt P11712). The conditions noted are these: Table 4; Yu et al.; cited from earlier work.
In a further series the target is T3, CYP1A2 (Homo sapiens, UniProt P05177).
T3 sequence (P05177 1-516): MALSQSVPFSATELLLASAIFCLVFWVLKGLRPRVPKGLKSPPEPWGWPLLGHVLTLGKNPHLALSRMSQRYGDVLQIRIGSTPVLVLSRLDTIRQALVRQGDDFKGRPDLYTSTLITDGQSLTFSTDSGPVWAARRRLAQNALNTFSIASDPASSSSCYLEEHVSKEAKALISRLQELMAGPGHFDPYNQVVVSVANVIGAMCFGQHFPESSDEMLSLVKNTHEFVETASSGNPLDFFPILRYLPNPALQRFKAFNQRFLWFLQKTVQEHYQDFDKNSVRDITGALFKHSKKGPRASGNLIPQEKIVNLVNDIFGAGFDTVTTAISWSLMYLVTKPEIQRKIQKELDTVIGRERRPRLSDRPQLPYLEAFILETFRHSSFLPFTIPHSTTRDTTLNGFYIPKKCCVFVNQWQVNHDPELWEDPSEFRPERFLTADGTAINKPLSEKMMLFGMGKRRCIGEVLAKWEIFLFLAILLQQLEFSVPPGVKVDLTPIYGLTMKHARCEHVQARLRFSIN
The note with it: Table 4; Yu et al.; cited from earlier work.

Molecules are shown by their SMILES. Where two headings read alike, the source gives them in different places. Marks after values point to notes of the source that are not given here.

Sequence of CYP3A4 (P08684 whole entry): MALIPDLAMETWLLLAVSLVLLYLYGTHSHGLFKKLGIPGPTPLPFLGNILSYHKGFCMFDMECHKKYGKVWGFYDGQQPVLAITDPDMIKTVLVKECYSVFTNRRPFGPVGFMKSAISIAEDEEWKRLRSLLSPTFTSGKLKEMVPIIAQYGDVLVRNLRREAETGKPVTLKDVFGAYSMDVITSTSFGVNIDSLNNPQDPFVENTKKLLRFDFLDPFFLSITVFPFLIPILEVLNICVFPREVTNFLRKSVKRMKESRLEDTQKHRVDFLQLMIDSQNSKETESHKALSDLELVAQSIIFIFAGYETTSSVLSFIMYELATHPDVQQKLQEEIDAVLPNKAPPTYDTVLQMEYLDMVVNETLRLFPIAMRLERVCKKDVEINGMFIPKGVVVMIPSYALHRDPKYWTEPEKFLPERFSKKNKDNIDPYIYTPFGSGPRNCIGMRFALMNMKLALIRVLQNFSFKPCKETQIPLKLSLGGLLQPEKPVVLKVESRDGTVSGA
Sequence of CYP2D6 (P10635 whole entry): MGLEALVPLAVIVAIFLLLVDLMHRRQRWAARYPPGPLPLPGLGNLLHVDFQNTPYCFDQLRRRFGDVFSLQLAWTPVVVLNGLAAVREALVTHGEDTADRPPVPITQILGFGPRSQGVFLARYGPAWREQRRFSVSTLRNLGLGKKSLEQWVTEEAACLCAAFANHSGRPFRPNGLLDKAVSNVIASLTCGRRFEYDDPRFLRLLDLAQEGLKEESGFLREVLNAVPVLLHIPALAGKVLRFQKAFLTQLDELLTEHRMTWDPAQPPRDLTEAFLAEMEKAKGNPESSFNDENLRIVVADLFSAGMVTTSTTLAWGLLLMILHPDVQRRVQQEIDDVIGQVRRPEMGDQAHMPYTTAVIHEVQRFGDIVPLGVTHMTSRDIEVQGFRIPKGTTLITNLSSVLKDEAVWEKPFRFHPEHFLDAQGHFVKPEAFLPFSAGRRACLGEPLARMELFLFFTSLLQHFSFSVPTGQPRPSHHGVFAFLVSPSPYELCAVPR
Sequence of CYP2C9 (P11712 whole entry): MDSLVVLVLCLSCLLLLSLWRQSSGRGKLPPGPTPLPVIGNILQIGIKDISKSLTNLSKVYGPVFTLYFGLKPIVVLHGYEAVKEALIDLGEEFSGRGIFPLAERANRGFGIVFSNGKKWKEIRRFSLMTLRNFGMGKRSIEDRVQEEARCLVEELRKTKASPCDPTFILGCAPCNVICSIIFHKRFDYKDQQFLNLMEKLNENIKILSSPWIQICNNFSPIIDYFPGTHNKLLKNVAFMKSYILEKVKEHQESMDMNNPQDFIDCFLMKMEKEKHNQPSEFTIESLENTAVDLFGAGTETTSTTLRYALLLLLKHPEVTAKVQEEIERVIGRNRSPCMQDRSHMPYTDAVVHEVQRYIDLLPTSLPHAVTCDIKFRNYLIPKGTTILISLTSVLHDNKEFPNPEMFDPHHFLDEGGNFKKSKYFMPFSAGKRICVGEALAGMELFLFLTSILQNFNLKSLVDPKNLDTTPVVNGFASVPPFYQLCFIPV
Sequence of CYP2C19 (P33261 whole entry): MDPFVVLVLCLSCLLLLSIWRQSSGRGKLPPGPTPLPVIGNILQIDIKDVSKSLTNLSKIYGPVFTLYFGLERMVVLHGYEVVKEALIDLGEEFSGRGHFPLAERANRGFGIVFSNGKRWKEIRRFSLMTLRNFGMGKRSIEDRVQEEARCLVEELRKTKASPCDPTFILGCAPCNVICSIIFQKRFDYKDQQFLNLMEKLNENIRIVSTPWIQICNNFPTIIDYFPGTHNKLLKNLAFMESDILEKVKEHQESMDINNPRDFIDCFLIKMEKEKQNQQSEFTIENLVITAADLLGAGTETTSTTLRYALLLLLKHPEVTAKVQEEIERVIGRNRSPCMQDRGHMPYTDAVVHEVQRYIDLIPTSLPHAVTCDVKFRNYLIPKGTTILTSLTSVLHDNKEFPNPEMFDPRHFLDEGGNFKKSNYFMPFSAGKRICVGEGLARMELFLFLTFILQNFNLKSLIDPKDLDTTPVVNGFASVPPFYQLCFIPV

What is called IC50 is the concentration needed to halve the response being measured. As to `O=C(O)c1cc(-c2ccc(C34CCN(CC3)CC4)cc2)c2ccc(-c3ccc(C(F)(F)F)cc3)cc2c1` [Compound 4], the “Plasma stability (% remaining at 120 min)” value in series [1] (Table 7, Jung et al. 2020) is recorded as 100 (m) %; in series [3] (Table 7, Jung et al. 2020) it was 100%. Also, the “Microsomal stability (t1/2, min)” value in series [2] (Table 7, Jung et al. 2020) is reported as 67.2 min; in series [9] (Table 7, Jung et al. 2020), 8 >240 (h) min. For the same compound, the IC50 on hP2Y14R [4] (Example 5 table, whole cell fluorescent binding assay) was 20 ± 4.4 nM; on hP2Y14R [4] (Table 2, whole hP2Y14R-CHO cells, 20 nM fluorescent antagonist 3, mean+SEM, n = 3-6), 20 ± 4.4 nM; at mP2Y14R, 384 ± 88 nM; at hP2Y14R [8], 169 ± 42 nM. Also, in [5] (pH 4), the “Solubility (ug/mL) pH 4” value was found to be 1.50 ± 0.04 ug/mL. Also, in series [5] (pH 7.4), the “Solubility (ug/mL) pH 7.4” value turned out to be 0.55 ± 0.02 ug/mL. Moreover, the “aqueous solubility (pH 4.0, μg/mL)” value in series [6] (pH 4.0, Table 7, Jung et al. 2020) is recorded as 14.3 ± 0.5 μg/mL. In series [6] (Table 7, Jung et al. 2020), the “aqueous solubility (pH 7.4, μg/mL)” value is listed as 0.44 ± 0.06 μg/mL. Besides, the “Log D7.4” value in [7] is reported as 4.18 ± 0.85^f.

As for `NC(=O)c1ccc(-c2cc(C(=O)O)cc(-n3cc(-c4ccc(C(F)(F)F)cc4)nn3)c2)cc1` [Compound 5], the “Plasma stability (t1/2, min)” value in series [1] (Table 4, Yu et al.) is recorded as >240 (m) min; in series [10], >240 (h); >240 (r); min; in series [3] (Table 4, Yu et al.), >240 (h); >240 (r); min. Moreover, the IC50 at CYP2C19, at CYP3A4, at CYP2D6, on CYP2C9 and at CYP1A2 was greater than 30000 nM throughout. The “Microsomal stability (t1/2, min)” value in [11] is on record as 108 min; in series [2] (Table 4, Yu et al.) it was 145 min; in [9] (Table 4, Yu et al.), 145 (h) min. Besides, the “Simulated intestinal fluid (t1/2, min)” value in series [12] was greater than 240 min. Moreover, the “aqueous solubility (pH 7.4, μg/mL)” value in series [6] (mean ± SD, Table 4, Yu et al.) is on record as 138 ± 4 μg/mL. In addition, the “t1/2” value in series [13] is listed as 0.20 h. In addition, the “Simulated gastric fluid (t1/2, min)” value in series [14] is greater than 240 min.
